Converted amounts (≈) assume the structure as drawn. Where two headings read alike, the source gives them in different places.
Assays:
[1] = Thermodynamic aqueous solubility in fasted state simulated intestinal fluid (FaSSIF); format: physicochemical; conditions: pH 6.5, thermodynamic from solid, 25° C., 24 hours equilibration, HPLC
Method: (§1) Initial screening of candidate compounds was performed using in vitro assays to determine potency, metabolic stability and solubility in biologically relevant fluids. Potency was assessed using a viability assay based on the survival of the J774 macrophage cell line. Macrophages are closely related to osteoclasts and have been used previously as a model system for osteoclast survival (see, e.g., Luckman et al., 1998). Like osteoclasts, J774 macrophages are dependent on continued NFκB activation for survival, thereby providing a valuable screen for compounds with anti-inflammatory activity. Metabolic stability was measured by determining the rate of disappearance of compound in the presence of human liver microsomal preparations, as quantified by LC-MS/MS. Solubility was measured by equilibration of the compound in fasted state simulated intestinal fluid (FaSSIF) and quantified by HPLC.
Thermodynamic aqueous solubility was measured by equilibration of a number of APSAP compounds, in the solid state, with fasted state simulated intestinal fluid (FaSSIF) and quantified by HPLC. Measurement of solubility in FaSSIF provides a valuable model for the prediction of drug dissolution following oral administration.
Preparation of blank FaSSIF: NaOH pellets (174 mg), NaH2PO4.2H2O (2.235 g), and NaCl (3.093 g) were dissolved in 500 mL of water. The pH was adjusted to 6.5 using 1 M NaOH solution.
Preparation of FaSSIF: Sodium taurocholate (165 mg) was dissolved in 25 mL blank FaSSIF. 0.6 mL of a solution containing 100 mg/mL lecithin in methylene chloride was added. The methylene chloride was eliminated under vacuum at about 40° C. The vacuum was drawn for 15 minutes at 250 mbar, followed by 15 minutes at 100 mbar. […] After cooling to room temperature, the solution was then adjusted to 100 mL with blank FaSSIF.
The suspension was equilibrated at 25° C. for 24 hours, and then the pH was measured. The suspension was then filtered through a glass fibre C filter into a 96-well plate. The filtrate was then diluted by a factor of 100. Quantification was made by HPLC with reference to a standard solution of compound at approximately 0.1 mg/mL in DMSO. Different volumes of the standard, diluted and undiluted sample solutions were injected. The solubility was calculated using the peak areas determined by integration of the peak found at the same retention time as the principal peak in the standard injection. Analysis was performed on an Agilent HP1100 series system equipped with a diode array detector and using ChemStation software vB.02.01-SR1.

[2] = In vivo pharmacokinetics in rat, oral and intravenous; parameters: species or system Sprague-Dawley rats; conditions: 2.5 mg/kg; for half-life: read-out: T½ (converted)
Method: Absorption and metabolic stability were studied using an in vivo pharmacokinetics assay. Drug levels were assessed using ultra-performance LC/TOF-MS.
Three male Sprague-Dawley rats, 200-300 g, were dosed per route. […] Test compound was formulated in 50:50 tetraethylene glycol:PBS for both routes. Animals were given free access to food throughout the study. On the day prior to dosing, the carotid artery was cannulated for sample collection and for the intravenous study, the jugular vein was cannulated to enable dosing.
Blood samples were taken from the carotid artery at the following time points and placed in heparinised tubes:
Oral dosing—predose, 0.25, 0.5, 1, 2, 4, 8 and 24 hours post dose.
IV dosing—predose, 0.08, 0.25, 0.5, 1, 2, 4 and 8 hours post dose.
Blood samples were centrifuged to obtain plasma, which was transferred to a separate container and frozen at −20° C.
Samples were thawed at room temperature and prepared by protein precipitation with acetonitrile in the ratio 1:2 with plasma, followed by centrifugation for 10 minutes at 16,100×g (Eppendorf 5415D, Eppendorf AG, Hamburg, Germany). The supernatants were collected for analysis. The standard samples were prepared similarly, after spiking blank rat plasma samples to study compound concentrations at 1, 2, 5, 10, 20, 50, 100, 200, 500 and 1000 ng/mL. In addition, extra samples were prepared from 0-1 hour i.v. samples by diluting 1/20 with 50% aqueous acetonitrile to avoid exceeding the linear range of the analytical method.
A Waters Acquity liquid ultra-performance chromatographic system (Waters Corp., Milford, Mass., USA) with autosampler, vacuum degasser and column oven was used. The analytical column used for all compounds was a Waters BEH C18, (2.1×50 mm, 1.7 μm, Waters Corp, Milford, Mass., USA) together with a 0.2 μm on-line filter before the column. The eluents were 0.1% acetic acid (A, pH 3.2) and methanol (B). Gradient elution from 5% to 60% B in two minutes was employed, followed by one minute gradient to 90% B and column equilibration. The flow rate was 0.5 mL/min and the column oven temperature was 35° C. The flow was directed to the MS via Water Acquity photo-diode-array (PDA) detector. LC/TOF-MS data were recorded with a Micromass LCT Premier XE time-of-flight (TOF) mass spectrometer (Micromass Ltd., Manchester, England) equipped with a LockSpray electrospray ionization source. A positive ionization mode of electrospray was used for all compounds. The mass range of m/z 100-900 was acquired. The W-option of the reflector was used, and the DRE (dynamic range enhancement) option was set to on. The mass spectrometer and HPLC system were operated under Micromass MassLynx 4.1 software. Leucine enkephalin ([M+H]^+ m/z 556.2771) was used as a lock mass compound for accurate mass measurements and was delivered into the LockSpray probe with a syringe pump. MassLynx 4.1 software was used for controlling the instrumentation and for data processing.
The pharmacokinetic parameters for the test compounds were calculated by WinNonlin Pro (Pharsight Corp, CA) using standard noncompartmental methods. The elimination phase half-life (t1/2) was calculated by least-squares regression analysis of the terminal linear part of the log concentration−time curve. The area under the plasma concentration−time curve (AUC) was determined by use of the linear trapezoidal rule up to the last measurable concentration and thereafter by extrapolation of the terminal elimination phase to infinity. The tentative oral bioavailability (F) was calculated by dividing the AUC (0-24 hours) after p.o. administration by the AUC (0-8 hours) after i.v. administration, i.e., F=AUC(p.o.)/AUC(i.v), and reported as percentages (%).

[3] = Human liver microsomal stability assay; format: in vitro ADME; conditions: pooled human liver microsomes 0.5 mg/mL, test compound 3 μM, 45 minute incubation, NADPH; for half-life at 3 μM: both sexes, pH 7.4
Method: as §1
Metabolic stability of APSAP derivatives was measured by determination of the rate of compound disappearance when incubated in the presence of human liver microsomes. Liver microsomes are prepared from the endoplasmic reticulum of hepatocytes and are the primary source of the most important enzymes (cytochrome P450) involved in drug metabolism. Study of drug stability in the presence of liver microsomes is accepted as a valuable model permitting rapid prediction of in vivo drug stability.
Human liver microsomes were obtained from a commercial source. Test compounds (3 μM) were incubated with pooled liver microsomes (male and female). Samples were incubated for a 45 minute period and removed at 5 time points and test compounds were analysed by LC-MS/MS.
The final incubation volume was 25 μL. A control incubation was included for each compound tested, where 0.1 M phosphate buffer pH 7.4 was added instead of NADPH. The control compounds testosterone and 7-hydroxycoumarin were included in each experiment and all incubations were performed singularly for each compound.
Each compound was incubated for 0, 5, 15, 30, and 45 minutes. The control (minus NADPH) was incubated for 45 minutes only. The reactions were stopped by the addition of 50 μL methanol containing internal standard at the appropriate time points. The incubation plates were centrifuged at 2500 rpm for 20 minutes at 4° C. to precipitate the protein.
Following protein precipitation, the sample supernatants were combined in cassettes of up to 4 compounds and analysed using standard LC-MS/MS conditions.
From a plot of the natural logarithm of the peak area ratio (i.e., the ratio of compound peak area:internal standard peak area) against time, the gradient of the line was determined. Subsequently, half-life and intrinsic clearance were calculated using the equations below: Eliminated rate constant(k)=(−gradient). […] Intrinsic Clearance(CLint)([…])=(V×0.693)/t1/2. wherein V=Incubation volume(μL/mg microsomal protein). Pharmacokinetics Studies

J774 macrophages = test: Alamar Blue macrophage J774 viability assay; format: cell-based; conditions: Mus musculus, 72 hours culture with compound, Alamar Blue read-out
Method: as §1
In vitro potency as anti-inflammatory agents was determined for a number of APSAP compounds by incubation with J774 macrophages and subsequent determination of cell viability.
J774 cells were plated at 10^4 cells per well in 100 μL αMEM (α Modified Eagle Medium) in 96-well plates and grown overnight. The next day, test compounds were added to the cultures, and cultures were continued for another 72 hours. At the end of the culture period, cell survival was determined using an Alamar Blue assay as previously described (see, e.g., Nociari et al., 1998).
Alamar Blue is an oxidation-reduction sensitive indicator. The dye itself is in the oxidised state, which is blue and non-fluorescent. The dye can accept electrons from reducing species, such as NADPH and FADH, to form a reduced dye species, which is red and fluorescent. Thus the transformation from oxidised form to reduced form can be measured by fluorimetric or colourimetric means. For fluorescence measurements, 530-560 nm excitation and 590 nm emission wavelengths are typically used. For colourimetric measurements, absorbance at 570 nm (reduced form) and 600 nm (oxidised form) is typically measured. A simple calculation is performed to determine the relative quantities of the two species.
A high ratio of the reducing species, NADPH and FADH, to the corresponding oxidised species, NADP and FAD, is an indicator that cells are proliferating and viable. A low ratio indicates cells that are quiescent or non-viable.
Briefly, Alamar Blue (Biosource International) was added undiluted to each well (1:10 v/v, 10 μL). The plate was incubated at 37° C. for 3-4 hours and the fluorescence was measured at 590 nm, with a 25 nm bandwidth. A high reading indicated cells with normal viability, and a low reading indicated cells that have been damaged and are no longer proliferating normally. The controls gave a high fluorescence reading, indicating a high number of live, healthy cells. A potent test compound gave a low fluorescence reading.
The average results for each test compound (n=5) were expressed as a percent (%) of the average control value.
Addition of Compounds. All of the compounds studied were made up as 100 mM solutions in DMSO. These stock solutions were then diluted 1000-10000× in culture medium (αMEM). From these 100 μM or 10 μM solutions, convenient quantities (3-33 μL) were added directly to the wells so as to give the desired final compound concentration.

[4] = fasted state simulated intestinal fluid (FaSSIF)

In the case of O=S(=O)(Nc1cccc(CO)c1)c1ccc(-c2ccc(Cl)cc2Cl)cc1 [ABD455, 2′,4′-dichloro-N-(3-(hydroxymethyl)phenyl)biphenyl-4-sulfonamide, reference compound], the solubility at 24 h [1, 4] is reported as 40 µg/mL (≈ 98 µM), the AUC ([2]; i.v.) is reported as 9 ng/mL/min and the half-life ([2]; male, Sprague-Dawley, plasma, iv, i.v.) is reported as 31.8 min. The bioavailability ([2]; male, Sprague-Dawley, plasma, oral, F=AUC(p.o.)/AUC(i.v.)) was 3%, the half-life ([2]; male, Sprague-Dawley, plasma, po, p.o.) was 48 min and the AUC ([2]; p.o.) was 1.2 ng/mL/min.

In the case of CNCC(O)c1cccc(NS(=O)(=O)c2ccc(-c3ccc(F)cc3F)cc2)c1 (stereo not drawn) [ABD783, 2′,4′-Difluoro-N-(3-(1-hydroxy-2-(methylamino)ethyl)phenyl)biphenyl-4-sulfonamide], the solubility at 24 h [1, 4] is reported as 370 µg/mL (≈ 884 µM), the T1/2 [3] is reported as “Stable” and the IC50 (J774 macrophages) is reported as 1180 nM.

CC(O)c1cccc(NS(=O)(=O)c2ccc(-c3ccc(Cl)cc3Cl)cc2)c1 (stereo not drawn) [ABD708, 2′,4′-Dichloro-N-(3-(1-hydroxyethyl)phenyl)biphenyl-4-sulfonamide] gave a solubility at 24 h [1, 4] of 100 µg/mL (≈ 237 µM), a half-life at 3 μM [3] of 6 min and an IC50 (J774 macrophages) of 180 nM.

Molecule O=S(=O)(Nc1cccc(C(O)CN2CCOCC2)c1)c1ccc(-c2ccc(F)cc2F)cc1 (stereo not drawn) [ABD785, 2′,4′-Difluoro-N-(3-(1-hydroxy-2-morpholinoethyl)phenyl)biphenyl-4-sulfonamide] has a solubility at 24 h [1, 4] of 210 µg/mL (≈ 443 µM), a half-life at 3 μM [3] of 6 min and an IC50 (J774 macrophages) of 4710 nM.

Molecule NCc1cccc(NS(=O)(=O)c2ccc(-c3ccc(F)cc3F)cc2)c1 [ABD788, N-(3-(Aminomethyl)phenyl)-2′,4′-difluorobiphenyl-4-sulfonamide] has a solubility at 24 h [1, 4] of 50 µg/mL (≈ 134 µM), a half-life at 3 μM [3] of 60 min and an IC50 (J774 macrophages) of 1000 nM.

For O=S(=O)(Nc1ccc(CO)cc1)c1ccc(-c2ccc(F)cc2F)cc1 [ABD466, 2′,4′-difluoro-biphenyl-4-sulfonic acid (4-hydroxymethyl-phenyl)-amide, reference compound], the solubility at 24 h [1] was 40 µg/mL (≈ 107 µM), the half-life at 3 μM [3] was 2 min and the IC50 (J774 macrophages) was 3000 nM.

For CN(C)Cc1cccc(NS(=O)(=O)c2ccc(-c3ccc(Cl)cc3Cl)cc2)c1 [ABD724, 2′,4′-Dichloro-N-(3-((dimethylamino)methyl)phenyl)biphenyl-4-sulfonamide], the solubility at 24 h [1, 4] was 90 µg/mL (≈ 207 µM), the half-life at 3 μM [3] was 21 min and the IC50 (J774 macrophages) was 300 nM.
